PubChem BioAssay (NCI)
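Growth conditions: 96-well plates. Treatment: test compound, 48 hours, 5 concentrations. Analysis: linear interpolation between bracketing concentrations; unreached endpoints set to highest concentration. TGI: total growth inhibition.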

Assays:
Assay in all cases: NCI-60 cell line screen, 48 h
SW-620 colon = tested on: SW-620 colon
EKVX NSCLC = tested on: EKVX NSCLC
SK-MEL-28 melanoma = tested on: SK-MEL-28 melanoma
T-47D breast = tested on: T-47D breast
SF-539 CNS = tested on: SF-539 CNS
OVCAR-4 ovarian = tested on: OVCAR-4 ovarian
NCI-H23 lung = tested on: NCI-H23 lung
SK-OV-3 ovarian = tested on: SK-OV-3 ovarian
UACC-257 melanoma = tested on: UACC-257 melanoma
OVCAR-8 ovarian = tested on: OVCAR-8 ovarian
K-562 leukemia = tested on: K-562 leukemia
PC-3 prostate = tested on: PC-3 prostate
TK-10 renal = tested on: TK-10 renal
SNB-19 CNS = tested on: SNB-19 CNS
SNB-75 CNS = tested on: SNB-75 CNS
BT-549 breast = tested on: BT-549 breast
HL-60(TB) leukemia = tested on: HL-60(TB) leukemia
COLO 205 colon = tested on: COLO 205 colon
HCT-116 colon = tested on: HCT-116 colon
SN12C renal = tested on: SN12C renal
DU-145 prostate = tested on: DU-145 prostate
NCI-H460 lung = tested on: NCI-H460 lung
A549 NSCLC = tested on: A549 NSCLC
CCRF-CEM leukemia = tested on: CCRF-CEM leukemia
OVCAR-3 ovarian = tested on: OVCAR-3 ovarian
SR leukemia = tested on: SR leukemia
SF-295 CNS = tested on: SF-295 CNS
HOP-62 NSCLC = tested on: HOP-62 NSCLC
LOX IMVI melanoma = tested on: LOX IMVI melanoma
786-0 renal = tested on: 786-0 renal
NCI-H522 lung = tested on: NCI-H522 lung
HT29 colon = tested on: HT29 colon
MDA-MB-435 = tested on: MDA-MB-435
HCC-2998 colon = tested on: HCC-2998 colon
RPMI-8226 leukemia = tested on: RPMI-8226 leukemia
IGROV1 ovarian = tested on: IGROV1 ovarian
SK-MEL-5 melanoma = tested on: SK-MEL-5 melanoma
HCT-15 colon = tested on: HCT-15 colon
MDA-MB-231 breast = tested on: MDA-MB-231 breast
MDA-N = tested on: MDA-N
SF-268 CNS = tested on: SF-268 CNS
UO-31 renal = tested on: UO-31 renal
MCF7 breast = tested on: MCF7 breast
HOP-92 NSCLC = tested on: HOP-92 NSCLC
UACC-62 melanoma = tested on: UACC-62 melanoma
M14 melanoma = tested on: M14 melanoma
KM12 colon = tested on: KM12 colon
U251 CNS = tested on: U251 CNS
MOLT-4 leukemia = tested on: MOLT-4 leukemia
OVCAR-5 ovarian = tested on: OVCAR-5 ovarian
NCI-H226 lung = tested on: NCI-H226 lung
CAKI-1 renal = tested on: CAKI-1 renal
NCI/ADR-RES ovarian = tested on: NCI/ADR-RES ovarian
SK-MEL-2 melanoma = tested on: SK-MEL-2 melanoma

CCOc1ncn(-c2ccc(NC(=S)NC3OC(CO)C(O)C(O)C3O)cc2)n1 (stereo not given)
TGI (SW-620 colon): > 100 µM
TGI (EKVX NSCLC): > 100 µM
TGI (SK-MEL-28 melanoma): > 100 µM
TGI (T-47D breast): > 100 µM
TGI (SF-539 CNS): > 100 µM
TGI (OVCAR-4 ovarian): > 100 µM
TGI (NCI-H23 lung): > 100 µM
TGI (SK-OV-3 ovarian): > 100 µM
TGI (UACC-257 melanoma): > 100 µM
TGI (OVCAR-8 ovarian): > 100 µM
TGI (K-562 leukemia): > 100 µM
TGI (PC-3 prostate): > 100 µM
TGI (TK-10 renal): > 100 µM
TGI (SNB-19 CNS): > 100 µM
TGI (SNB-75 CNS): > 100 µM
TGI (BT-549 breast): > 100 µM
TGI (HL-60(TB) leukemia): > 100 µM
TGI (COLO 205 colon): > 100 µM
TGI (HCT-116 colon): > 100 µM
TGI (SN12C renal): > 100 µM
TGI (DU-145 prostate): > 100 µM
TGI (NCI-H460 lung): > 100 µM
TGI (A549 NSCLC): > 100 µM
TGI (CCRF-CEM leukemia): > 100 µM
TGI (OVCAR-3 ovarian): > 100 µM
TGI (SR leukemia): > 100 µM
TGI (SF-295 CNS): > 100 µM
TGI (HOP-62 NSCLC): > 100 µM
TGI (LOX IMVI melanoma): > 100 µM
TGI (786-0 renal): > 100 µM
TGI (NCI-H522 lung): > 100 µM
TGI (HT29 colon): > 100 µM
TGI (MDA-MB-435): > 100 µM
TGI (HCC-2998 colon): > 100 µM
TGI (RPMI-8226 leukemia): > 100 µM
TGI (IGROV1 ovarian): > 100 µM
TGI (SK-MEL-5 melanoma): > 100 µM
TGI (HCT-15 colon): > 100 µM
TGI (MDA-MB-231 breast): > 100 µM
TGI (MDA-N): > 100 µM
TGI (SF-268 CNS): > 100 µM
TGI (UO-31 renal): > 100 µM
TGI (MCF7 breast): > 100 µM
TGI (HOP-92 NSCLC): > 100 µM
TGI (UACC-62 melanoma): > 100 µM
TGI (M14 melanoma): > 100 µM
TGI (KM12 colon): > 100 µM
TGI (U251 CNS): > 100 µM
TGI (MOLT-4 leukemia): > 100 µM
TGI (OVCAR-5 ovarian): > 100 µM

COc1cccc2c1C(=O)c1c(O)c3c(c(O)c1C2=O)CC(O)(C(=O)CO)CC3OC1CC(N2CCOCC2C#N)C(O)C(C)O1 (stereo not given)
TGI (SW-620 colon): 0.0569 µM
TGI (NCI-H226 lung): < 0.0001 µM
TGI (EKVX NSCLC): < 0.0001 µM
TGI (SK-MEL-28 melanoma): < 0.0001 µM
TGI (T-47D breast): < 0.0001 µM
TGI (SF-539 CNS): < 0.0001 µM
TGI (NCI-H23 lung): 0.128 µM
TGI (SK-OV-3 ovarian): 2.4 µM
TGI (UACC-257 melanoma): < 0.0001 µM
TGI (PC-3 prostate): < 0.0001 µM
TGI (BT-549 breast): 0.00113 µM
TGI (HL-60(TB) leukemia): < 0.0001 µM
TGI (COLO 205 colon): < 0.0001 µM
TGI (HCT-116 colon): 12.2 µM
TGI (SN12C renal): 0.00109 µM
TGI (DU-145 prostate): > 100 µM
TGI (CAKI-1 renal): 0.00425 µM
TGI (A549 NSCLC): > 100 µM
TGI (CCRF-CEM leukemia): < 0.0001 µM
TGI (OVCAR-3 ovarian): 3.28 µM
TGI (SR leukemia): > 100 µM
TGI (HOP-62 NSCLC): < 0.0001 µM
TGI (786-0 renal): 5.22 µM
TGI (NCI-H522 lung): < 0.0001 µM
TGI (MDA-MB-435): < 0.0001 µM
TGI (HCC-2998 colon): < 0.0001 µM
TGI (HCT-15 colon): 1.56 µM
TGI (MDA-MB-231 breast): < 0.0001 µM
TGI (MDA-N): < 0.0001 µM
TGI (NCI/ADR-RES ovarian): 0.00357 µM
TGI (UACC-62 melanoma): < 0.0001 µM
TGI (M14 melanoma): < 0.0001 µM
TGI (SK-MEL-2 melanoma): < 0.0001 µM
TGI (MOLT-4 leukemia): < 0.0001 µM
TGI (OVCAR-5 ovarian): 19.1 µM
